Read-outs that look alike come from different tables or passages of the source.
Tests used:
Set9 = target: T1, Set9 (Homo sapiens, UniProt Q8WTS6); experiment: Western blot evaluation of histone methyltransferase inhibitor, Set9; assay type: biochemical; details: FIG. 17
T1 sequence (Q8WTS6 1-366): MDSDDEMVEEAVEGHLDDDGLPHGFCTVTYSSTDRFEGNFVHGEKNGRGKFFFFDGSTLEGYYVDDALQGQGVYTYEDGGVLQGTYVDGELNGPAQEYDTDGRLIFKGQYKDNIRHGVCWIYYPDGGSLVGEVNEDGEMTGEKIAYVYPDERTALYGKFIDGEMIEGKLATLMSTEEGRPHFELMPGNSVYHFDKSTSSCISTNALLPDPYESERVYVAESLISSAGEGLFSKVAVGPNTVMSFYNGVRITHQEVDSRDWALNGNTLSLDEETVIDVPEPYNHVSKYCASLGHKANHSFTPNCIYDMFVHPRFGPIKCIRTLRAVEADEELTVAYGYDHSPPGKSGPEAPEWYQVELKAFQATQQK
Procedure: To examine whether the activity of a histone methyltransferase inhibitor could be evaluated by an assay for measuring histone methyltransferase activity using a peptidyl MCA, the assay for measuring histone methyltransferase activity was attempted. However, the activity of gliotoxin as a histone methyltransferase inhibitor was evaluated by Western blot, prior to the assay for measuring histone methyltransferase activity. Gliotoxin is known not to inhibit the methylation activity of Set9 but to inhibit the methylation activity of G9a. […] The following assay for measuring histone methyltransferase activity was carried out in order to examine whether the same results as those from the Western blot could also be obtained from the assay for measuring histone methyltransferase activity.

[1] = target: T2, Set9 (His-Set9, His-Set7/9) (Homo sapiens, UniProt Q8WTS6); experiment: Assay for measuring histone methyltransferase activity using peptidyl MCA, inhibitor evaluation with Set9; assay type: biochemical
T2 sequence (Q8WTS6 1-366): T1 sequence (Q8WTS6 1-366)
Procedure: When Set9 was adopted as a histone methyltransferase, the following method was used. 10 μL of 2×HMT buffer (100 mM Tris-HCl (pH 8.5), 20 mM MgCl2, 40 mM KCl, 20 mM 2-mercaptoethanol, 500 mM sucrose), 0.4 μL of a BSA solution (150 μg/mL), 4.5 μL of His-Set9 (0, 2.25 μg/μL), 1 μL of gliotoxin (any of various concentrations) and 0.1 μL of distilled water were mixed and then incubated at room temperature for 1 hour. Then, 2 μL of SAM (10 mM) and 2 μL of a peptidyl MCA (Ac-p53 (369-372)-MCA) solution (0.6 mM) were added thereto, which was then incubated at 37° C. for 1 hour. Thereafter, 30 μL of a trypsin solution (20 mg/mL) was added thereto, followed by incubation at 37° C. for 15 minutes. Then, the fluorescence intensity of the solution was measured at an excitation wavelength (λex) of 390 nm and a fluorescence wavelength (λem) of 460 nm. The final concentration of His-Set9 during the measurement of fluorescence intensity was 0.5 μg/μL. […]
The rate of the inhibition of methylation by gliotoxin was calculated from the results in the left panel and the middle panel of FIG. 18. Specifically, the value (%) was calculated which was obtained by dividing “a value obtained by subtracting “the fluorescence intensity of AMC when peptidase was added but gliotoxin was not added” from “the fluorescence intensity of AMC when both peptidase and gliotoxin were added”” by “a value obtained by subtracting “the fluorescence intensity of AMC when peptidase was added but gliotoxin was not added” from “the fluorescence intensity of AMC when no peptidase or gliotoxin was added”” and multiplying the resultant value by 100. […]
When His-Set7/9 was adopted as a histone methyltransferase, the following method was used. […] Then, the fluorescence intensity of the solution was measured at an excitation wavelength (λex) of 330 nm and a fluorescence wavelength (λem) of 380 nm or at an excitation wavelength (λex) of 390 nm and a fluorescence wavelength (λem) of 460 nm. The final concentration of His-Set7/9 during the measurement of fluorescence intensity was 0 μg/μL or 0.05 μg/μL.

CN1C(=O)[C@]23CC4=CC=C[C@H](O)[C@H]4N2C(=O)[C@@]1(CO)SS3 [gliotoxin]
inhibition of the methylation of Set9 (Western blot) (Set9): did not inhibit | IC50 ([1]; Example 8, Ac-p53 (369-372)-MCA, AMC fluorescence λex 390 nm/λem 460 nm, FIG. 18, read-out: IC50 for Set9): > 100 µM | IC50 ([1]; Example 14, Ac-ERα(299-302)-MCA, AMC fluorescence λex 390 nm/λem 460 nm, left panel, read-out: IC50 for His-Set7/9): > 100 µM | IC50 ([1]; Example 14, Ac-ERα(299-302)-MCA, peptidyl MCA fluorescence λex 330 nm/λem 380 nm, right panel of FIG. 28, read-out: IC50 for His-Set7/9): > 100 µM

Source: patent US9012166B2, “Method for assaying histone methylation enzyme activity” (Kyushu Institute of Technology, priority 2010, dated 2015)
